Assay results taken from ChEMBL document CHEMBL5291721, “A preclinical secondary pharmacology resource illuminates target-adverse drug reaction associations of marketed drugs” (Nat Commun, 2023).

Key:
[1] = molecular target: 5-hydroxytryptamine receptor 2A (Homo sapiens, UniProt P28223); assay type: functional, cell-based
[2] = molecular target: T1, Alpha-1A adrenergic receptor (Homo sapiens, UniProt P35348); assay type: functional, cell-based
T1 sequence (P35348 whole entry): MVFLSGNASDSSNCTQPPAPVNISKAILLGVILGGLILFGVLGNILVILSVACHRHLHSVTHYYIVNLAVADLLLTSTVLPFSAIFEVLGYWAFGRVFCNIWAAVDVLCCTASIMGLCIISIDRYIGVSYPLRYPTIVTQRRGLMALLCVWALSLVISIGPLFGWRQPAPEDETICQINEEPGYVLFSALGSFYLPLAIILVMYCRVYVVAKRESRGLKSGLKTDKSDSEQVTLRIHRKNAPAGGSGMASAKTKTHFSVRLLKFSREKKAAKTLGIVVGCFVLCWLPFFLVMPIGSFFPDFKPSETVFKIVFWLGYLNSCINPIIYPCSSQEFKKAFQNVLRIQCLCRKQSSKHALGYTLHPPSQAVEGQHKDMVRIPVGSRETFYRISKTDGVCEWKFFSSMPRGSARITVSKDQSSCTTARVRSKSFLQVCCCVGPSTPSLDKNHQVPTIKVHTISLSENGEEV

Cannabinoid receptor 1 = Cannabinoid receptor 1 (Homo sapiens, UniProt P21554); assay type: functional, cell-based
Chain of Cannabinoid receptor 1 (P21554 whole entry): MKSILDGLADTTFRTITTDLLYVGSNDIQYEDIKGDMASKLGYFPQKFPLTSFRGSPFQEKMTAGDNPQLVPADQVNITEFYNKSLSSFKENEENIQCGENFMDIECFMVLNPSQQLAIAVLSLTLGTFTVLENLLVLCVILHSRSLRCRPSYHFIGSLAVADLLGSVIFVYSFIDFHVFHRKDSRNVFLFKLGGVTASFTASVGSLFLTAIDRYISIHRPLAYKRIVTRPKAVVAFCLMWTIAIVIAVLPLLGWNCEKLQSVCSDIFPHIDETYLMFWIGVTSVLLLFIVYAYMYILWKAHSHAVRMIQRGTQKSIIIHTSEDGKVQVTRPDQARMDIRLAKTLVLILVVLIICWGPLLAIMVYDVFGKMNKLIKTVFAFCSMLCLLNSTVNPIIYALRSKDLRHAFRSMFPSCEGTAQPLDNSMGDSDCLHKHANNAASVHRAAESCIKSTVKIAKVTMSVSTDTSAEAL

Progesterone receptor = molecular target: T2, Progesterone receptor (Homo sapiens, UniProt P06401); assay type: functional
T2 sequence (P06401 whole entry): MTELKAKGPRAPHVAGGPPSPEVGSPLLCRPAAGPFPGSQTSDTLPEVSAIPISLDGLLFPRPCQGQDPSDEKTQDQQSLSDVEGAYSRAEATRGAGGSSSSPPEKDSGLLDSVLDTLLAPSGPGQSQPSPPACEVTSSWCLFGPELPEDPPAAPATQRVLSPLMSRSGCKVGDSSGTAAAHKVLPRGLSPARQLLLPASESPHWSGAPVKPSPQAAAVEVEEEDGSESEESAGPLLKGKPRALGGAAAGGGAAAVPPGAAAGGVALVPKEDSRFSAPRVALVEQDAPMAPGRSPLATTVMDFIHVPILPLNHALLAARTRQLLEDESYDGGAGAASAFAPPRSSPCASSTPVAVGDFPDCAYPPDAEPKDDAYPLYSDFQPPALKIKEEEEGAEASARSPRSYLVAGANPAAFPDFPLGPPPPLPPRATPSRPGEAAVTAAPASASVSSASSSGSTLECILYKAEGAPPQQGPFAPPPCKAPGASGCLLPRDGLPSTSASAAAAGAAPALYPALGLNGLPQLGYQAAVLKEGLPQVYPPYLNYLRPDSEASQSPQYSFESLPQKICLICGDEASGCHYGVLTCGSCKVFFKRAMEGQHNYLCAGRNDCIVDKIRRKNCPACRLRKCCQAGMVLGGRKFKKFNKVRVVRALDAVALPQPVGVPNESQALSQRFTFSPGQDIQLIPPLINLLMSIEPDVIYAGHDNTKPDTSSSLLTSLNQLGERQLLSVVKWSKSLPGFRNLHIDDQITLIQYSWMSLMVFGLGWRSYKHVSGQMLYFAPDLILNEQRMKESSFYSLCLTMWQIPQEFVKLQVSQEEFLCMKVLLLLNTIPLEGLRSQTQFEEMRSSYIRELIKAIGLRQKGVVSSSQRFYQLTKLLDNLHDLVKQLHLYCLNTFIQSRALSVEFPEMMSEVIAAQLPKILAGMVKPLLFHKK

[3] = molecular target: T3, 5-hydroxytryptamine receptor 1A (Homo sapiens, UniProt P08908); assay type: functional, cell-based
T3 sequence (P08908 whole entry): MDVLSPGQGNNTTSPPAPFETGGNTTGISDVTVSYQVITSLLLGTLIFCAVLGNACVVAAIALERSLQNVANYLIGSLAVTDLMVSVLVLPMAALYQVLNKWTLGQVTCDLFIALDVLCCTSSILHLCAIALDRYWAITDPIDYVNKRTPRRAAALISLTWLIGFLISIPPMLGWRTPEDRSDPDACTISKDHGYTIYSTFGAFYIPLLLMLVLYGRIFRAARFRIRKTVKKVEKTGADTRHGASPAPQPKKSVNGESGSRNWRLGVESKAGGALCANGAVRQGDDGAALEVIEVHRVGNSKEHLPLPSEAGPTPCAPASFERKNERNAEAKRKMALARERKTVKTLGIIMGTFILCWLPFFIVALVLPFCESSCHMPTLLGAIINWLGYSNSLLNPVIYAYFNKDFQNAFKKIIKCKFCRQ

[4] = molecular target: Beta-1 adrenergic receptor (Homo sapiens, UniProt P08588); assay type: functional
Chain of Beta-1 adrenergic receptor (P08588 whole entry): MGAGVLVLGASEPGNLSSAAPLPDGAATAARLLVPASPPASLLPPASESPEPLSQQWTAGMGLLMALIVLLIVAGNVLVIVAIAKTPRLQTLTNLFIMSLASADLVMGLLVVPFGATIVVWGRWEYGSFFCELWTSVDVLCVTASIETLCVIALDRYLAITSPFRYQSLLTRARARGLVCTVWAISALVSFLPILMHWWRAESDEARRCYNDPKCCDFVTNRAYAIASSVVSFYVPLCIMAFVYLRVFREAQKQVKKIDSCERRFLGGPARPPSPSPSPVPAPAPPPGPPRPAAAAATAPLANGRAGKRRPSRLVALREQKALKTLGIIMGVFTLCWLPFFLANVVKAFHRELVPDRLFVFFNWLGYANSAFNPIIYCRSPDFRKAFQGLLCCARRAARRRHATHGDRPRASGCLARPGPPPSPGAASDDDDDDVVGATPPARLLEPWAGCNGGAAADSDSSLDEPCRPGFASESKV

[5] = molecular target: Kappa-type opioid receptor (Homo sapiens, UniProt P41145)
Chain of Kappa-type opioid receptor (P41145 whole entry): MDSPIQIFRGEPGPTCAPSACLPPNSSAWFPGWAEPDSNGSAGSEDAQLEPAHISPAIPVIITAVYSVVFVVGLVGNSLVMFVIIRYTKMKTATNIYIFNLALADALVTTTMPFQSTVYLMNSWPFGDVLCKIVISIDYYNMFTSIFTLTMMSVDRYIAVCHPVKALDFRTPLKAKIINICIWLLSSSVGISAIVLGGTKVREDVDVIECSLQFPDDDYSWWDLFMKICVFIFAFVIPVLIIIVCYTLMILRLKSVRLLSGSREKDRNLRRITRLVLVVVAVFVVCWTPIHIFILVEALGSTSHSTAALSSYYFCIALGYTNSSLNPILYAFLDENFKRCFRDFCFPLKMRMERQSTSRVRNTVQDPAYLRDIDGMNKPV

[6] = molecular target: Voltage-dependent L-type calcium channel subunit alpha-1C (Rattus norvegicus, UniProt P22002); assay type: functional
Mu-type opioid receptor [7] = molecular target: T4, Mu-type opioid receptor (Homo sapiens, UniProt P35372); experiment: biochemical; assay type: functional
T4 sequence (P35372 whole entry): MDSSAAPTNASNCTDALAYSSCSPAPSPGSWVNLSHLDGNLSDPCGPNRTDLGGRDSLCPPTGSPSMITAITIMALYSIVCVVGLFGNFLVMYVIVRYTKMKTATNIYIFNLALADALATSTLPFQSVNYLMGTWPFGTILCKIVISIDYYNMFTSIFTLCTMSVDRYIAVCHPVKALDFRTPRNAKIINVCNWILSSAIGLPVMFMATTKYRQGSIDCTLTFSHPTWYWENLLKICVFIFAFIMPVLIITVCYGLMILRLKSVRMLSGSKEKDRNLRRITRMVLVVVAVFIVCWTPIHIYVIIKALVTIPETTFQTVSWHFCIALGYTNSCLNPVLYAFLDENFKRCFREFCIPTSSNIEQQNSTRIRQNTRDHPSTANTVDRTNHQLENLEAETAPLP

[8] = molecular target: Beta-2 adrenergic receptor (Homo sapiens, UniProt P07550)
Chain of Beta-2 adrenergic receptor (P07550 whole entry): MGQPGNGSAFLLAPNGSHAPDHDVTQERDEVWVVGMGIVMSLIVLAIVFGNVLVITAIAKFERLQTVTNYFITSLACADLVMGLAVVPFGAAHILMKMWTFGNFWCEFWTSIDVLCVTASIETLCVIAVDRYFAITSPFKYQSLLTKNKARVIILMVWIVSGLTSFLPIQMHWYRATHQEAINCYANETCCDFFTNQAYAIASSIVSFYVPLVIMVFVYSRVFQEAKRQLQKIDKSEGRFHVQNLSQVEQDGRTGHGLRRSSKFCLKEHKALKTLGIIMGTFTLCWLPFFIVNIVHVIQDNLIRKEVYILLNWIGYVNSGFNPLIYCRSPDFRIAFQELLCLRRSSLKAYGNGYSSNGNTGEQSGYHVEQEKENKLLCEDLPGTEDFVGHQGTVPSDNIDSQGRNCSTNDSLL

[9] = molecular target: Prostaglandin G/H synthase 1 (Homo sapiens, UniProt P23219); assay type: functional
Chain of Prostaglandin G/H synthase 1 (P23219 whole entry): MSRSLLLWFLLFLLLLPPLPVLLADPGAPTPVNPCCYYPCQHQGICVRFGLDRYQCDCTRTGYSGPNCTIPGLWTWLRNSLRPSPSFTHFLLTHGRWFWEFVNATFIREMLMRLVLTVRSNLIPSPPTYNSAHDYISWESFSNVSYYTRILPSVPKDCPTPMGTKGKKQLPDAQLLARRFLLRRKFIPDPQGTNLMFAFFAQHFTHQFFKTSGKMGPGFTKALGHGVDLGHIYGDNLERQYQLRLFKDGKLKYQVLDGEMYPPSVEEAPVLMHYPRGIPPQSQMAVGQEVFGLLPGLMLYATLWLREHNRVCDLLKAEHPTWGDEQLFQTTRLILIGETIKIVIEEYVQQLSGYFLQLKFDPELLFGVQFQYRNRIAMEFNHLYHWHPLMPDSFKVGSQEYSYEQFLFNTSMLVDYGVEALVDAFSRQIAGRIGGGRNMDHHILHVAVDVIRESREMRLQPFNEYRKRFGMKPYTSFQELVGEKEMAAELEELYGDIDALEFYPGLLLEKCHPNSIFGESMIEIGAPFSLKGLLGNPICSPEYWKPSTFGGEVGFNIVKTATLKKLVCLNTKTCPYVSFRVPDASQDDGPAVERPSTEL

Mu-type opioid receptor [10] = molecular target: T4, Mu-type opioid receptor
[11] = molecular target: T5, Alpha-2A adrenergic receptor (Homo sapiens, UniProt P08913)
T5 sequence (P08913 whole entry): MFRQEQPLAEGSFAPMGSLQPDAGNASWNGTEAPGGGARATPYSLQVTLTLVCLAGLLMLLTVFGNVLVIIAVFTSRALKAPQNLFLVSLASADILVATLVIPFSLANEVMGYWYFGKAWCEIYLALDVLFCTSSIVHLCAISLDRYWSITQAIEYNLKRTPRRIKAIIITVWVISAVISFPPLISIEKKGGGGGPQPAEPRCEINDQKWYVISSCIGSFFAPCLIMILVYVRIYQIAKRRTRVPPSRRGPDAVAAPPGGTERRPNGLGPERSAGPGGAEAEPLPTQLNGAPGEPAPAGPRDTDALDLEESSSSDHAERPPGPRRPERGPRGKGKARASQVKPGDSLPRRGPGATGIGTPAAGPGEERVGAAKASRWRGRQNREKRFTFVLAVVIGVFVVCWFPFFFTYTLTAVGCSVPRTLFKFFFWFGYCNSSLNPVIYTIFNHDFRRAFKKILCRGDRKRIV
Note: assay procedure not described here.

Chain of 5-hydroxytryptamine receptor 2A (P28223 whole entry): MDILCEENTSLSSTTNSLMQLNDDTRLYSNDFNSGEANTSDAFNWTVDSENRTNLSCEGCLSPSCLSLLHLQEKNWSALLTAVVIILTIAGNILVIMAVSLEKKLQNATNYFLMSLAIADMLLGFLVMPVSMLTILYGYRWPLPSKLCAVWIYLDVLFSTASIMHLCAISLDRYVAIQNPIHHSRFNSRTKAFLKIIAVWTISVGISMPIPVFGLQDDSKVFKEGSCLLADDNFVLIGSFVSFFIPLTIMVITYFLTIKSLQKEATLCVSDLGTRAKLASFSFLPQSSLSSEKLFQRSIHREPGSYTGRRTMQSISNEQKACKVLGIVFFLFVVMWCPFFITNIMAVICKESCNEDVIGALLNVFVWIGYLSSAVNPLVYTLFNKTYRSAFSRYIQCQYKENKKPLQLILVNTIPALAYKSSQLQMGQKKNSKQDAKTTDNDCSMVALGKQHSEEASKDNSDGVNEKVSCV

| SMILES | AC50 [1] | AC50 [2] | AC50 (Cannabinoid receptor 1) | AC50 (Progesterone receptor) | AC50 [3] | AC50 [4] | AC50 [5] | AC50 [6] | AC50 (Mu-type opioid receptor [7]) | AC50 [8] | AC50 [9] | AC50 (Mu-type opioid receptor [10]) | AC50 [11] |
| --- | --- | --- | --- | --- | --- | --- | --- | --- | --- | --- | --- | --- | --- |
| CC(C)Cc1ccc(CC(=O)O)cc1 [IBUFENAC] | > 30 µM | > 30 µM | > 30 µM | > 30 µM | > 30 µM | > 30 µM | – | – | – | – | – | – | – |
| CC(=O)c1ccc2c(c1)N(CCCN1CCN(CCO)CC1)c1ccccc1S2 [ACETOPHENAZINE] | 0.87 µM | > 30 µM | > 30 µM | > 30 µM | 0.007 µM | – | – | – | – | – | – | – | – |
| CC(N)Cc1ccccc1 (configuration not stated) [AMPHETAMINE] | > 30 µM | > 30 µM | > 30 µM | > 30 µM | > 30 µM | > 30 µM | > 10 µM | > 10 µM | – | – | – | – | – |
| CCc1nn(CCCN2CCN(c3cccc(Cl)c3)CC2)c(=O)n1CCOc1ccccc1 [NEFAZODONE] | – | 2.2 µM | > 30 µM | – | – | > 10 µM | 5.46 µM | > 10 µM | 7.6 µM | > 10 µM | – | – | – |
| CC(C(=O)O)c1ccc(C(=O)c2cccs2)cc1 (configuration not stated) [SUPROFEN] | > 10 µM | – | – | > 10 µM | > 10 µM | – | > 10 µM | > 10 µM | – | > 10 µM | – | – | – |
| CC(C(=O)O)c1ccc(N2CC=CC2)c(Cl)c1 (configuration not stated) [PIRPROFEN] | > 30 µM | > 30 µM | > 30 µM | – | > 10 µM | > 10 µM | > 10 µM | > 10 µM | – | > 10 µM | 0.0325 µM | > 30 µM | > 30 µM |
| C[C@@H]1O[C@@H]1P(=O)(O)O [FOSFOMYCIN] | > 10 µM | – | – | > 30 µM | > 10 µM | > 10 µM | > 10 µM | > 10 µM | – | > 10 µM | – | – | – |
| COC(=O)N[C@H](C(=O)N[C@@H](Cc1ccccc1)[C@@H](O)CN(Cc1ccc(-c2ccccn2)cc1)NC(=O)[C@@H](NC(=O)OC)C(C)(C)C)C(C)(C)C [ATAZANAVIR] | > 10 µM | – | – | > 30 µM | > 10 µM | > 10 µM | 1.06 µM | > 10 µM | – | > 10 µM | – | – | – |
| COC(=O)[C@@H]1CC2=CC(=O)CC[C@]2(C)[C@@]23O[C@@H]2C[C@@]2(C)[C@@H](CC[C@@]24CCC(=O)O4)[C@H]13 [EPLERENONE] | > 30 µM | > 30 µM | > 30 µM | – | > 30 µM | > 30 µM | > 10 µM | > 10 µM | – | > 10 µM | – | – | – |
| CN1CCCC(n2nc(Cc3ccc(Cl)cc3)c3ccccc3c2=O)CC1 (configuration not stated) [AZELASTINE] | 4.6 µM | > 30 µM | > 30 µM | > 30 µM | > 30 µM | 18 µM | – | – | – | – | – | – | – |
| COc1cc(Nc2c(C#N)cnc3cc(OCCCN4CCN(C)CC4)c(OC)cc23)c(Cl)cc1Cl [BOSUTINIB] | – | – | – | – | – | > 10 µM | 10 µM | > 10 µM | – | > 10 µM | > 30 µM | 15.3 µM | 7.58 µM |
| C#C[C@]1(O)CC[C@H]2[C@@H]3CCc4cc(O)ccc4[C@H]3CC[C@@]21C [ETHINYL ESTRADIOL] | – | – | – | – | – | > 10 µM | > 10 µM | > 10 µM | – | > 10 µM | > 30 µM | 20.6 µM | > 30 µM |
| CC1(C)O[C@@H]2C[C@H]3[C@@H]4C[C@H](F)C5=CC(=O)CC[C@]5(C)[C@H]4[C@@H](O)C[C@]3(C)[C@]2(C(=O)CO)O1 [FLURANDRENOLIDE] | – | – | – | – | – | – | – | – | – | – | > 30 µM | > 30 µM | > 30 µM |
| Oc1ncnc2[nH]ncc12 [ALLOPURINOL] | – | > 30 µM | > 30 µM | – | > 10 µM | > 10 µM | > 10 µM | > 10 µM | – | > 10 µM | > 30 µM | > 30 µM | > 30 µM |
| CN(C)C(=O)Oc1ccc[n+](C)c1 [PYRIDOSTIGMINE] | – | – | – | – | – | – | – | – | – | – | > 30 µM | > 30 µM | > 30 µM |
| C(=N\NC1=NCCN1)/c1c2ccccc2c(/C=N/NC2=NCCN2)c2ccccc12 [BISANTRENE] | – | – | – | – | – | – | – | – | – | – | > 30 µM | 5.36 µM | 11.6 µM |
| OCc1cc([C@@H](O)CNCCCCCCOCCOCc2c(Cl)cccc2Cl)ccc1O [VILANTEROL] | 23 µM | 1.1 µM | > 30 µM | > 30 µM | > 30 µM | – | – | – | – | – | – | – | – |
| Cc1ccc(C(=O)c2cc(O)c(O)c([N+](=O)[O-])c2)cc1 [TOLCAPONE] | > 10 µM | – | – | > 30 µM | 5.6 µM | > 10 µM | > 10 µM | > 10 µM | – | > 10 µM | – | – | – |
| COc1cc2c(cc1OC)C(=O)C(CC1CCN(Cc3ccccc3)CC1)C2 (configuration not stated) [DONEPEZIL] | > 30 µM | – | > 30 µM | – | – | > 10 µM | > 10 µM | > 10 µM | – | > 10 µM | > 30 µM | > 30 µM | 15.9 µM |
| O=C(NC[C@H]1CN(c2ccc(N3CCOCC3=O)cc2)C(=O)O1)c1ccc(Cl)s1 [RIVAROXABAN] | > 30 µM | > 30 µM | > 30 µM | > 30 µM | – | – | > 30 µM | – | – | – | > 30 µM | > 30 µM | > 30 µM |
| CC(O)CO (configuration not stated) [PROPYLENE GLYCOL] | – | – | – | – | – | – | – | – | – | – | > 30 µM | > 30 µM | > 30 µM |
| CCC(=O)O[C@H]1[C@H](O[C@@H]2[C@@H](C)[C@H](O[C@H]3C[C@@](C)(OC)[C@@H](O)[C@H](C)O3)[C@@H](C)C(=O)O[C@H](CC)[C@@](C)(O)[C@H](O)[C@@H](C)C(=O)[C@H](C)C[C@@]2(C)O)O[C@H](C)C[C@@H]1N(C)C [ERYTHROMYCIN PROPIONATE] | – | – | – | – | – | – | – | – | – | – | > 10 µM | 16.2 µM | > 30 µM |
| CCOC(=O)N[C@@H]1CC[C@@H]2[C@@H](C1)C[C@H]1C(=O)O[C@H](C)[C@H]1[C@H]2/C=C/c1ccc(-c2cccc(F)c2)cn1 [VORAPAXAR] | – | – | – | – | – | – | – | – | – | – | > 30 µM | 0.82 µM | > 30 µM |
